Patent publication US20160361309A1, “METHODS OF TREATING CANCER PATIENTS RESPONDING TO EZH2 INHIBITOR GSK126” (GLAXOSMITHKLINE INTELLECTUAL PROPERTY (NO.2) LIMITED, priority 2014, published 2016)

Columns and labels:
[1] = system: A687V EZH2 mutant SUP-B8 cell line; experiment: 6-day cell proliferation assay (CellTiter-Glo), SUP-B8; format: cell-based, human
Method: (§1) FIG. 4. A687V EZH2 mutant ALL is highly dependent on EZH2 activity. A, Sensitivity of ALL cell lines to EZH2 inhibition with GSK126. Cells were treated with a 20-point 2-fold dilution series of GSK126 (range 36 μM-70 pM) for 6 days and cell growth was measured using Cell Titer-Glo (Promega). Data are represented as the concentration of GSK126 required to inhibit 50% of growth (growth IC50). B, Western blot analysis of H3K27me3, H3K27me2, H3K27me1, and total histone H3 following treatment of NALM-6 or SUP-B8 cell lines with varying concentrations of GSK126 for 72 hours.
(§2) FIG. 5. […] Temporal kinetics of GSK126-induced growth inhibition (A and C) and caspase 3/7 activation (B and D) in NALM-6 (A and B) and SUP-B8 (C and D) over a 6 day time course using Cell Titer-Glo or Caspase-Glo 3/7 (Promega), respectively.
The SUP-B8 acute lymphoblastic leukemia cell line which harbors a heterozygous A687V EZH2 mutation was kindly provided by Dr. Ronald Levy (Stanford University) and was maintained in RPMI-1640 media (MediaTech) supplemented with 10% fetal bovine serum (FBS) (Sigma-Aldrich). All other cell lines were obtained from either ATCC or DSMZ and maintained in the recommended cell culture media.
(§3) Cells were evaluated for sensitivity to GSK126 in a 6-day proliferation assay as described previously (McCabe et al., 2012b). Briefly, cells were seeded into 384 well plates at a density that permitted proliferation for 6 days. Cells were then treated in duplicate with a 20-point 2-fold dilution series of GSK126 or 0.147% DMSO. After incubation with compound for 6 days, cell proliferation was evaluated using CellTiter-Glo (Promega) according to the manufacturer's specifications. Data were fit with a 4-parameter equation to generate a concentration response curve and to determine the concentration of GSK126 required to inhibit 50% of growth (gIC50).

[2] = system: EZH2 WT cell lines (B cell ALL panel); experiment: 6-day cell proliferation assay (CellTiter-Glo), EZH2 WT B cell ALL cell lines; format: cell-based; conditions: Homo sapiens, 144 h, 6 days, range over cell lines, read-out: growth IC50 values
Method: as §1, §3

NALM-6 cells [3] = experiment: Growth inhibition time course (CellTiter-Glo), NALM-6; format: cell-based, human; conditions: NALM-6 (EZH2 WT), out to 6 days
Method: as §2, §3

SUP-B8 cells [4] = experiment: Caspase 3/7 assay (Caspase-Glo 3/7), SUP-B8; format: cell-based, human; conditions: SUP-B8, beginning on day 5
From the text: as §2
(§4) For detection of caspase-3/7 activity, Caspase-Glo 3/7 (Promega) was utilized according to the manufacturer's directions. Values were normalized to CellTiter Glo (Promega) levels at each time point and expressed as a percentage of vehicle treated control.

NALM-6 cells [5] = experiment: Caspase 3/7 assay (Caspase-Glo 3/7), NALM-6; format: cell-based, human; conditions: NALM-6 (EZH2 WT), out to 6 days
From the text: as §2, §4

H3K27me3 in SUP-B8 cells = experiment: Western blot analysis of H3K27 methylation after GSK126 treatment; format: cell-based, human; conditions: SUP-B8 compared with the most sensitive EZH2 WT cell line NALM-6, 72 hours
Method: as §1
Cell lysate preparation and western blotting were performed as previously described (McCabe et al., 2012a). Antibodies utilized included: EZH2 (BD Transduction Labs), histone H3 (Abcam), H3K27me1 (ActiveMotif), H3K27me2 (Cell Signaling Technology), H3K27me3 (Cell Signaling Technology), EED (Santa Cruz), SUZ12 (Cell Signaling Technology), or Actin (Sigma). Histone methylation antibody specificity was previously confirmed using full-length recombinant methylated histones harboring mono-, di-, or tri-methylation at H3K4, H3K9, H3K27, H3K36, and H3K79 (McCabe et al., 2012a).

SUP-B8 cells [6] = experiment: Gene expression profiling (Affymetrix U133 Plus 2.0), SUP-B8; format: cell-based, human; conditions: SUP-B8, 500 nM GSK126, 72 hours
Method: (§5) FIG. 6. Activation of gene expression in A687V EZH2, but not WT EZH2, cells. A, Gene expression profiling of SUP-B8 and NALM-6 cells treated for 72 hours with 0.1% DMSO or 500 nM GSK126. […] Green, lower expression. Red, higher expression.
(§6) SUP-B8 and NALM-6 cells (2×10^5/well) were seeded into six-well tissue culture plates 24 hours before treatment with 0.1% DMSO or 500 nM GSK126 for 72 hours. Cells were collected into Trizol reagent (Invitrogen) and total RNA was isolated via phenol:chloroform extraction and the RNeasy kit (Qiagen) according to the manufacturer's instructions. Total RNA was labeled and hybridized to Affymetrix Human Genome U133 Plus 2.0 oligonucleotide microarrays arrays according to the manufacturer's instructions (Affymetrix, Santa Clara, Calif., USA). CEL files were processed and differentially expressed probe sets were determined as described previously (McCabe et al., 2012b). Briefly, significant probe sets were identified after filtering for detection, an average fold-change >2 or <-2, and p-values adjusted for multiple testing correction by FDR (Benjamini Hochberg)<0.1.

NALM-6 cells [7] = experiment: Gene expression profiling (Affymetrix U133 Plus 2.0), NALM-6; format: cell-based, human; conditions: NALM-6, 500 nM GSK126, 72 hours
Method: as §5, §6

[8] = system: Y641 and A677 EZH2 mutant DLBCL cell lines; conditions: many Y641 and A677 EZH2 mutant DLBCL cell lines; previously shown; cited from earlier work

Compound: CC[C@H](C)n1cc(C)c2c(C(=O)NCc3c(C)cc(C)[nH]c3=O)cc(-c3ccc(N4CCNCC4)nc3)cc21 [GSK126]
- IC50 ([1]; Homo sapiens, 144 h, SUP-B8 (heterozygous A687V EZH2), 6 days, CellTiter-Glo, read-out: dose required to inhibit 50% of cell proliferation (growth IC50)): 441 nM
- growth inhibition over 6 day time course ([1]; SUP-B8, after 4 days of treatment, maximal on day 6): dose-dependent growth inhibition
- doses at which cell number losses were evident ([1]; SUP-B8, day 6): above 100 nM
- IC50 [2]: 2500 to 7800 nM
- growth inhibition over 6 day time course (NALM-6 cells [3]): little growth inhibition
- caspase 3/7 activity (SUP-B8 cells [4]): increased in a dose-dependent fashion
- activation of caspases 3 or 7 (NALM-6 cells [5]): no activation of caspases 3 or 7
- demethylation of H3K27me3 (H3K27me3 in SUP-B8 cells): comparable, or slightly reduced, demethylation of H3K27me3
- up-regulated probes (SUP-B8 cells [6]): 643
- down-regulated probes (NALM-6 cells [7]): 10
- up-regulated probes (NALM-6 cells [7]): 35
- inhibition of proliferation [8]: effectively inhibit the proliferation
